Source: patent US20260364168A1, “USE OF PROTEIN KINASE C (PKC) ACTIVATING COMPOUNDS AS AN ADJUVANT” (priority 2022, published 2026)
Read-outs that look alike come from different tables or passages of the source.

System: human PBMC cells
Test: cytokine/chemokine gene expression (TaqMan) in human PBMC
Conditions: Homo sapiens, PBMC, 4 h
Description: Materials and methods: 100 million frozen human PBMC cells were purchased from Allcells (100 million/vial). The cells were thawed and recovered for one day before 1.5-1.8 million cells in 900 μl RPMI1640 with 10% heat-inactivated FBS were seeded in each well of 24-well plates. Various compounds in DMSO stock (500×) were diluted 50-fold with the same media to make 10× compound stock for most compounds. 1 μL of 5 mg/mL PMA was diluted to 99 μL of the media to make 50 μg/mL PMA. For PMA with ionomycin treatment condition, 1.5 μL of 50 μg/mL PMA and 3 μL of 500 μg/mL ionomycin were added to 145.5 μL of the media to make 10× compound stock. Sources of the compounds are as follows: PMA from Abcam (Abcam #ab120297); Ionomycin from Sigma (Sigma #I0634); Resiquimod from Sellect Chem. (Selleckchem #S8133); and LPS from Sigma (Sigma #L6143).
Each treatment condition was performed in duplicates. After treatment, mRNA was extracted from cells and samples from duplicates were combined for TaqMan gene expression assays (ThermoFisher) in triplicates. Expression of 19 genes (IL-1β, IL-2, IL-4, IL-6, IL-8, IL-10, IL-13, IL-18, IL-12p70/IL-12A, IL-12p40/IL-12B, IFN-α, IFN-γ, GM-CSF/CSF2, CCL2/MCP-1, MIP1a/CCL3, TNF-α, MX1, OAS1, ISG15) along with two housekeeping gene controls, 18S and GAPDH, was determined. Target gene expression in each sample was determined by relative quantification (RQ) using the comparative Ct (ΔΔCT) method. This method measures the Ct difference (ΔCT) between target gene and the housekeeping genes (18S & GAPDH), then compares the ΔCT values of treated samples to DMSO-treated control samples. The mean ΔCT value of the DMSO-treated control from two independent DMSO-treated control samples was used. The relative expression level of target gene was calculated by using the equation:
relative expression=2^−ΔΔCT

SMILES: CC1=C[C@H]2[C@@]3(O)[C@H](C)C[C@]4(OC(=O)[C@@H](N)[C@]56C[C@H]7C[C@H](C[C@H](C7)C5)C6)[C@H]([C@@H]3C=C(CO)C[C@]2(O)C1=O)C4(C)C
- fold induction at 0.01 µM (read-out: CCL2 gene relative expression, 0.01 μM, 4 h, vs DMSO): 5.58
- fold induction at 0.03 µM (read-out: CCL2 gene relative expression, 0.03 μM, 4 h, vs DMSO): 3.59
- fold induction at 0.1 µM (read-out: CCL2 gene relative expression, 0.10 μM, 4 h, vs DMSO): 0.38
- fold induction at 0.01 µM (read-out: GM-CSF gene relative expression, 0.01 μM, 4 h, vs DMSO): 1.59
- fold induction at 0.03 µM (read-out: GM-CSF gene relative expression, 0.03 μM, 4 h, vs DMSO): 8.38
- fold induction at 0.1 µM (read-out: GM-CSF gene relative expression, 0.10 μM, 4 h, vs DMSO): 16.1
- fold induction at 0.01 µM (read-out: IFN-α gene relative expression, 0.01 μM, 4 h, vs DMSO): 0.78
- fold induction at 0.03 µM (read-out: IFN-α gene relative expression, 0.03 μM, 4 h, vs DMSO): 0.46
- fold induction at 0.1 µM (read-out: IFN-α gene relative expression, 0.10 μM, 4 h, vs DMSO): 0.31
- fold induction at 0.01 µM (read-out: IFNγ gene relative expression, 0.01 μM, 4 h, vs DMSO): 1.69
- fold induction at 0.03 µM (read-out: IFNγ gene relative expression, 0.03 μM, 4 h, vs DMSO): 3.82
- fold induction at 0.1 µM (read-out: IFNγ gene relative expression, 0.10 μM, 4 h, vs DMSO): 18.1
- fold induction at 0.01 µM (read-out: IL-1β gene relative expression, 0.01 μM, 4 h, vs DMSO): 0.59
- fold induction at 0.03 µM (read-out: IL-1β gene relative expression, 0.03 μM, 4 h, vs DMSO): 2.26
- fold induction at 0.1 µM (read-out: IL-1β gene relative expression, 0.10 μM, 4 h, vs DMSO): 3
- fold induction at 0.01 µM (read-out: IL-2 gene relative expression, 0.01 μM, 4 h, vs DMSO): 3.06
- fold induction at 0.03 µM (read-out: IL-2 gene relative expression, 0.03 μM, 4 h, vs DMSO): 7.78
- fold induction at 0.1 µM (read-out: IL-2 gene relative expression, 0.10 μM, 4 h, vs DMSO): 3.29
- fold induction at 0.01 µM (read-out: IL-4 gene relative expression, 0.01 μM, 4 h, vs DMSO): 0.84
- fold induction at 0.03 µM (read-out: IL-4 gene relative expression, 0.03 μM, 4 h, vs DMSO): 2.54
- fold induction at 0.1 µM (read-out: IL-4 gene relative expression, 0.10 μM, 4 h, vs DMSO): 2.77
- fold induction at 0.01 µM (read-out: IL-6 gene relative expression, 0.01 μM, 4 h, vs DMSO): 1.17
- fold induction at 0.03 µM (read-out: IL-6 gene relative expression, 0.03 μM, 4 h, vs DMSO): 0.86
- fold induction at 0.1 µM (read-out: IL-6 gene relative expression, 0.10 μM, 4 h, vs DMSO): 6.72
- fold induction at 0.01 µM (read-out: IL-8 gene relative expression, 0.01 μM, 4 h, vs DMSO): 0.71
- fold induction at 0.03 µM (read-out: IL-8 gene relative expression, 0.03 μM, 4 h, vs DMSO): 0.54
- fold induction at 0.1 µM (read-out: IL-8 gene relative expression, 0.10 μM, 4 h, vs DMSO): 0.6
- fold induction at 0.01 µM (read-out: IL-10 gene relative expression, 0.01 μM, 4 h, vs DMSO): 1.12
- fold induction at 0.03 µM (read-out: IL-10 gene relative expression, 0.03 μM, 4 h, vs DMSO): 0.41
- fold induction at 0.1 µM (read-out: IL-10 gene relative expression, 0.10 μM, 4 h, vs DMSO): 0.09
- fold induction at 0.01 µM (read-out: IL-12p40 gene relative expression, 0.01 μM, 4 h, vs DMSO): 0.89
- fold induction at 0.03 µM (read-out: IL-12p40 gene relative expression, 0.03 μM, 4 h, vs DMSO): 0.32
- fold induction at 0.1 µM (read-out: IL-12p40 gene relative expression, 0.10 μM, 4 h, vs DMSO): 0.22
- fold induction at 0.01 µM (read-out: IL-12p70 gene relative expression, 0.01 μM, 4 h, vs DMSO): 1.03
- fold induction at 0.03 µM (read-out: IL-12p70 gene relative expression, 0.03 μM, 4 h, vs DMSO): 0.87
- fold induction at 0.1 µM (read-out: IL-12p70 gene relative expression, 0.10 μM, 4 h, vs DMSO): 0.76
- fold induction at 0.01 µM (read-out: IL-13 gene relative expression, 0.01 μM, 4 h, vs DMSO): 3.1
- fold induction at 0.03 µM (read-out: IL-13 gene relative expression, 0.03 μM, 4 h, vs DMSO): 52.6
- fold induction at 0.1 µM (read-out: IL-13 gene relative expression, 0.10 μM, 4 h, vs DMSO): 101
- fold induction at 0.01 µM (read-out: IL-18 gene relative expression, 0.01 μM, 4 h, vs DMSO): 0.26
- fold induction at 0.03 µM (read-out: IL-18 gene relative expression, 0.03 μM, 4 h, vs DMSO): 0.06
- fold induction at 0.1 µM (read-out: IL-18 gene relative expression, 0.10 μM, 4 h, vs DMSO): 0.06
- fold induction at 0.01 µM (read-out: ISG15 gene relative expression, 0.01 μM, 4 h, vs DMSO): 1.01
- fold induction at 0.03 µM (read-out: ISG15 gene relative expression, 0.03 μM, 4 h, vs DMSO): 1.33
- fold induction at 0.1 µM (read-out: ISG15 gene relative expression, 0.10 μM, 4 h, vs DMSO): 1.54
- fold induction at 0.01 µM (read-out: MIP1a (CCL3) gene relative expression, 0.01 μM, 4 h, vs DMSO): 1.65
- fold induction at 0.03 µM (read-out: MIP1a (CCL3) gene relative expression, 0.03 μM, 4 h, vs DMSO): 2.82
- fold induction at 0.1 µM (read-out: MIP1a (CCL3) gene relative expression, 0.10 μM, 4 h, vs DMSO): 5.73
- fold induction at 0.01 µM (read-out: MX1 gene relative expression, 0.01 μM, 4 h, vs DMSO): 0.84
- fold induction at 0.03 µM (read-out: MX1 gene relative expression, 0.03 μM, 4 h, vs DMSO): 1.01
- fold induction at 0.1 µM (read-out: MX1 gene relative expression, 0.10 μM, 4 h, vs DMSO): 0.99
- fold induction at 0.01 µM (read-out: OAS1 gene relative expression, 0.01 μM, 4 h, vs DMSO): 0.74
- fold induction at 0.03 µM (read-out: OAS1 gene relative expression, 0.03 μM, 4 h, vs DMSO): 0.78
- fold induction at 0.1 µM (read-out: OAS1 gene relative expression, 0.10 μM, 4 h, vs DMSO): 0.69
- fold induction at 0.01 µM (read-out: TNF-α gene relative expression, 0.01 μM, 4 h, vs DMSO): 2.39
- fold induction at 0.03 µM (read-out: TNF-α gene relative expression, 0.03 μM, 4 h, vs DMSO): 4.48
- fold induction at 0.1 µM (read-out: TNF-α gene relative expression, 0.10 μM, 4 h, vs DMSO): 6.25
